Laboratory results reported in ChEMBL document CHEMBL1201862, “PubChem BioAssay data set” (2004).
Activity calls are given as the source filed them.

Legend:
Format in all cases: functional
Caspase-3 = biological target: T1, Caspase-3 (Homo sapiens, UniProt P42574);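 further: Dose-response selectivity test against caspase-3 for candidate inhibitors of sentrin-specific proteases (SENPs)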
T1 sequence (P42574 whole entry): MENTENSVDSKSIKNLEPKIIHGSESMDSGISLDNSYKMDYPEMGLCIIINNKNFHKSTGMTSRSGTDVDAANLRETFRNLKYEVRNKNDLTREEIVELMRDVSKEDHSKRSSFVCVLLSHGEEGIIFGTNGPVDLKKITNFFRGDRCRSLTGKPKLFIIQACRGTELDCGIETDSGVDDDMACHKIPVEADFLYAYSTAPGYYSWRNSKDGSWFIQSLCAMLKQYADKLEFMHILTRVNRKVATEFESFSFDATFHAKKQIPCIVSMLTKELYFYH

[1] = biological target: T2, Sentrin-specific protease 7 (Homo sapiens, UniProt Q9BQF6);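 further: Luminescence-based dose-response confirmation of ultra-high-throughput screening hits, measuring inhibition of SENP7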
T2 sequence (Q9BQF6 whole entry): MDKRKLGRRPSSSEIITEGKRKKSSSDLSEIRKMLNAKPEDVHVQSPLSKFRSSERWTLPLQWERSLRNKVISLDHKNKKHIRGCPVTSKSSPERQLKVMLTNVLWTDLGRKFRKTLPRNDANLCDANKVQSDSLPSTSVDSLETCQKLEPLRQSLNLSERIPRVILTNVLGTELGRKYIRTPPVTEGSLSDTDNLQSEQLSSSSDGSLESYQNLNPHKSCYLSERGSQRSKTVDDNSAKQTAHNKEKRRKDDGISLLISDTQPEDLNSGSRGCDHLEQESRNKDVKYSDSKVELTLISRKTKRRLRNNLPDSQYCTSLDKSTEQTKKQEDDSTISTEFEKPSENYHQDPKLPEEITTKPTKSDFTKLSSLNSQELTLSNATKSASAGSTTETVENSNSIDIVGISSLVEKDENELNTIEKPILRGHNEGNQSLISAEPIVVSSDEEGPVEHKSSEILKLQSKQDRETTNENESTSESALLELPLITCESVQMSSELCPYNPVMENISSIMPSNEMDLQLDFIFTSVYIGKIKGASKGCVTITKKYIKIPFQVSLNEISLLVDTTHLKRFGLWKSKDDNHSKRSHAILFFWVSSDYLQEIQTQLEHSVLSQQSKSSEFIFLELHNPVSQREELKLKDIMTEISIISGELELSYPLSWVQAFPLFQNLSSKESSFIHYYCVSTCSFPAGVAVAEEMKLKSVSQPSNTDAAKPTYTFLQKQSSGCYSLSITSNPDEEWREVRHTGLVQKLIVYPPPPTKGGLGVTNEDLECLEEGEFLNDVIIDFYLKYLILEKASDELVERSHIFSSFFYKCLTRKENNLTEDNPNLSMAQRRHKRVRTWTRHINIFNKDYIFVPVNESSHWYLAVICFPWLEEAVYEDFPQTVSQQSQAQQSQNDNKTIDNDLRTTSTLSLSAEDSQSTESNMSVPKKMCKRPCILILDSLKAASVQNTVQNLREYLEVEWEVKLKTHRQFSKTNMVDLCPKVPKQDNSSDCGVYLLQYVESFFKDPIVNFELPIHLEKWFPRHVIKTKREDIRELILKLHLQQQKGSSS

[2] = biological target: T3, Replicative DNA helicase DnaB (Mycobacterium tuberculosis, UniProt P9WMR3); test: DnaB intein splicing inhibitors, dose response, biochemical, cell-free fluorescence (AID 449749)
T3 sequence (P9WMR3 whole entry): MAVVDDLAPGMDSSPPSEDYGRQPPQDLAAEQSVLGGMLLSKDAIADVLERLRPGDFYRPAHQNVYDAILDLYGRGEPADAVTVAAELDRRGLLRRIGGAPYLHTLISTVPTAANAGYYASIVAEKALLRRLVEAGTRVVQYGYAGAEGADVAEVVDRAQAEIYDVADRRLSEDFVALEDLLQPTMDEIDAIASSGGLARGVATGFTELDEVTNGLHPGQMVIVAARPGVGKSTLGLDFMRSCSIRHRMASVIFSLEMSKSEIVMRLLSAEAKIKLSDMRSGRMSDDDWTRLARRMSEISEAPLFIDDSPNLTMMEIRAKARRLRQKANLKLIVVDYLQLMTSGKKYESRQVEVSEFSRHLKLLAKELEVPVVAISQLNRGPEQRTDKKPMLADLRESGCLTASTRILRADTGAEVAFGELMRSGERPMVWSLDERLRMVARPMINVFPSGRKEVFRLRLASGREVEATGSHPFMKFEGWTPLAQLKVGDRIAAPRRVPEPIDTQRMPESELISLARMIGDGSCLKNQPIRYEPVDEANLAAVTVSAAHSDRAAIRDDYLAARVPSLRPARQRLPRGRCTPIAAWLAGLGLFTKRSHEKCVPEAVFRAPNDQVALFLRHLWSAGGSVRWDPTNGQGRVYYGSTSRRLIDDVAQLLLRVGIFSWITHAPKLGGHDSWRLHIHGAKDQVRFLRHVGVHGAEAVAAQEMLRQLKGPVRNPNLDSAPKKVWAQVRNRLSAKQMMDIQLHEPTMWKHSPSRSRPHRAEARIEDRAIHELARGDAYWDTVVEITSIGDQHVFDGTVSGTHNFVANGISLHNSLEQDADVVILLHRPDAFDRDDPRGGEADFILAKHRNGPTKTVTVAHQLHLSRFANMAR

[3] = biological target: Leukocyte tyrosine kinase receptor (Homo sapiens, UniProt P29376); test: Navigating the Kinome. Panel member name: LTK
[4] = biological target: Cyclin-dependent kinase 5 (Homo sapiens, UniProt Q00535);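 further: CDK5 measured as one member of a kinase profiling panel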
Chain of Cyclin-dependent kinase 5 (Q00535 whole entry): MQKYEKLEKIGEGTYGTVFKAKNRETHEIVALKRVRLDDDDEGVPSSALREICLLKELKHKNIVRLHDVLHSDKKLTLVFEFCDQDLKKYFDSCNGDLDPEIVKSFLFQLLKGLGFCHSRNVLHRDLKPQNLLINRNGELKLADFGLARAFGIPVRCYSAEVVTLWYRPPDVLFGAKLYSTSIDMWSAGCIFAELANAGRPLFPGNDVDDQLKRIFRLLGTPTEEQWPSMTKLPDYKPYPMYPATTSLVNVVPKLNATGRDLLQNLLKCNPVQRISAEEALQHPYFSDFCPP

Chain of Leukocyte tyrosine kinase receptor (P29376 whole entry): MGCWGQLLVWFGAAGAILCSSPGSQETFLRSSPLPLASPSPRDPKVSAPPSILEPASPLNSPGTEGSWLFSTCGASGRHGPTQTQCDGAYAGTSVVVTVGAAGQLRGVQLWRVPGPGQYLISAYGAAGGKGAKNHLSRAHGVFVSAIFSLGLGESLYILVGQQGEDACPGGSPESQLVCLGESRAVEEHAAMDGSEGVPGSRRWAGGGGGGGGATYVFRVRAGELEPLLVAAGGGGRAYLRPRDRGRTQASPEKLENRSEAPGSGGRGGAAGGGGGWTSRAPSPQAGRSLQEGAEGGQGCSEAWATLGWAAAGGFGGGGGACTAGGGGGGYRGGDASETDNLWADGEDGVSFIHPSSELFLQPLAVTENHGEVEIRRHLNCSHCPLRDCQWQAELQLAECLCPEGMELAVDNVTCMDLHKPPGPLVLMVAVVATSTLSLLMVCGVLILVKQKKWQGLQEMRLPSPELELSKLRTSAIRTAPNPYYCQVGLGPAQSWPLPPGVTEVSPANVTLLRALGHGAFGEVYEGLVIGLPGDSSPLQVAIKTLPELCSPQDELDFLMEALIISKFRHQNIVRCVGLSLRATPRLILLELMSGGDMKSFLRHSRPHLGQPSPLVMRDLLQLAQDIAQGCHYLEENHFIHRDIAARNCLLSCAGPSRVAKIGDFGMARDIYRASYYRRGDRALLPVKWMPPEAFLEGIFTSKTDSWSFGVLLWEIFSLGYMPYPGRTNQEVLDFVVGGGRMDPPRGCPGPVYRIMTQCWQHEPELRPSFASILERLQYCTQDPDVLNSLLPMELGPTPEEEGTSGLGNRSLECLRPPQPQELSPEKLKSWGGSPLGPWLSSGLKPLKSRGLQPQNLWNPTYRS

## CCCNC(=O)c1c(N)n(CC2CCCO2)c2nc3ccccc3nc12 (stereo not given)
Caspase-3
  IC50: 15.2 µM (active)
[1]
  IC50: 2.83 µM (active)

## O=C1/C(=C\c2cccc(O)c2O)SC(=S)N1Cc1ccccc1
[2]
  AC50: > 380 µM (inactive)

## CC(C)(C)c1cc[n+](C2=C([N-]S(=O)(=O)c3cccs3)C(=O)c3ccccc3C2=O)cc1
Caspase-3
  IC50: 23.8 µM (active)
[1]
  IC50: 8.77 µM (active)
[2]
  AC50: 0.98 µM (active)

## COc1c(-c2nc3ccccc3[nH]2)c(O)cc2oc(C)cc(=O)c12
[3]
  Ki: 0.158 µM (active)
[4]
  Ki: 0.794 µM (active)

## COC(=O)c1c(N)nc2ccccn12
[3]
  Ki: 10 µM (active)
[4]
  Ki: 39.8 µM (active)

## CCc1ccc(S(=O)(=O)/N=C2\C=C(Nc3ccc(O)cc3)C(=O)c3ccccc32)cc1
[2]
  AC50: 0.416 µM (active)

## Cc1cc([N+](=O)[O-])cc(/C=N\NC(=O)C2COc3ccccc3O2)c1O (stereo not given)
Caspase-3
  IC50: 17.6 µM (active)
[1]
  IC50: 14.5 µM (active)

## Cc1ccc(F)c(NC(=O)Nc2ccc(-c3cccc4[nH]nc(N)c34)cc2)c1 [LINIFANIB]
[3]
  Ki: 1 µM (active)
[4]
  Ki: > 3.16 µM (inactive)
